We go through two compounds from PMC9596850, “Tonsillar Microbiome‐Derived Lantibiotics Induce Structural Changes of IL‐6 and IL‐21 Receptors and Modulate Host Immunity” (Advanced Science, 2022).

Peptide text beside a SMILES is read from it.

One data set addresses T1, murine IL‐21R (Mus musculus, UniProt Q9JHX3).
T1 construct: Fc region of human IgG1 (C); purchased Sino Biological
Nature of the data set: SPR binding to immobilized murine IL‐21R. As for the experimental part:
The binding affinities of salivaricins to IL‐6Rα or IL‐21R were assayed using the Biacore 8K instrument (GE Healthcare). Murine IL‐6Rα (20 nM, abcam) or IL‐21R ([…], Sino Biological) were immobilized on a CM5 sensor chip using standard amine‐coupling at 25 °C with PBS‐P running buffer (GE Healthcare), as described previously.^[ [39] ^] […] Regeneration was achieved by extended washing with NaOH (5 mm) after each sample injection. The dissociation constants (KD) of salivaricins were obtained by fitting the data sets to steady‐state affinity model using Biacore 8K Evaluation Software.

In data set [1] the test system is collagen‐induced arthritis (CIA) model mice. Put plainly: Collagen‐induced arthritis (CIA) mice, prophylactic regimen. In kind it is in vivo, DBA/1 mice. To be noted: prophylactic administration in CIA mice. As for the experimental part: Male DBA/1 mice (6–8 weeks old) were purchased from Huafukang Co. Ltd. (Beijing, China) and fed under specific pathogen‐free conditions. All experiments were carried out in accordance with guidelines prescribed by the Animal Care and Use Committee of Peking University People's Hospital (2019PHE047). CIA induction was established by following a previously published protocol.^[ [41] ^] Briefly, DBA/1 mice were immunized intradermally at the base of the tail with 200 µg of bovine type II collagen (CII, Chondrex) emulsified in complete Freund's adjuvant (Sigma‐Aldrich, St Louis, MO, USA) in equal volumes. Three weeks later, a booster was delivered using 100 µg CII emulsified in Freund's incomplete adjuvant. Mice were monitored for signs of arthritis after the booster immunization. Clinical score was assessed by using the following system as detailed previously:^[ [41] ^] […]
The paws from each mouse were collected and fixed in 4% paraformaldehyde (PFA) for 48 h, then scanned using a Micro‐CT scanner (Quantum FX, Caliper, USA). […] A microscopic assessment of sagittal sections was performed and histopathological changes were scored based on the following previously reported parameters:^[ [42] ^] […]

[2] abbreviates: Table S4, immobilized mIL-21R, Steady state affinity model.

T1 sequence (Q9JHX3 20-529): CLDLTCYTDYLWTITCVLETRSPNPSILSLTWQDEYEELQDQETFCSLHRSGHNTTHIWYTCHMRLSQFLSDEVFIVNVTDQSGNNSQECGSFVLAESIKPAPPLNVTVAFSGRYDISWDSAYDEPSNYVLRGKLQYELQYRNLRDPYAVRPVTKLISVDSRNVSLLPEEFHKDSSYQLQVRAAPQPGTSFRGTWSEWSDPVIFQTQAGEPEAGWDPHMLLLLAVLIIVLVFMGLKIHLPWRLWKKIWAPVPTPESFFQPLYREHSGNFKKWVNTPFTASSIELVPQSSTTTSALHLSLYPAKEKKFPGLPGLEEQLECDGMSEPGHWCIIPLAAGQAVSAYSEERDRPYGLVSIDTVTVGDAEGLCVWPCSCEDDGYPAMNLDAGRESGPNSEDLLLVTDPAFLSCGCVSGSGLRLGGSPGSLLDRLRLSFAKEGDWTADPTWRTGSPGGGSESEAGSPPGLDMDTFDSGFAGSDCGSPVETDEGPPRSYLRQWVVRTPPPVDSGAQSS

Consider `CC[C@H](C)[C@H](NC(=O)[C@@H](NC(=O)[C@H](C)NC(=O)[C@H](Cc1ccccc1)NC(=O)[C@H](Cc1c[nH]c2ccccc12)NC(=O)CNC(=O)[C@@H](NC(=O)CNC(=O)[C@H](CCCNC(=N)N)NC(=O)[C@@H](N)CCCCN)[C@@H](C)O)[C@@H](C)O)C(=O)N[C@H](C(=O)N[C@@H](CC(=O)O)C(=O)N[C@@H](CC(=O)O)C(=O)N[C@@H](CS)C(=O)N1CCC[C@H]1C(=O)N[C@@H](CC(N)=O)C(=O)N[C@@H](CO)C(=O)N[C@H](C(=O)N[C@@H](Cc1ccccc1)C(=O)N[C@H](C(=O)N[C@@H](CS)C(=O)N[C@@H](CS)C(=O)O)C(C)C)C(C)C)[C@@H](C)O` [salivaricin A2] (H-KRGTGWFATITDDCPNSVFVCC-OH), for which the Kd was 29.4 µM on murine IL‐21R (Figure 5D legend, mutant experiment, analyte 12.5–800 µM, immobilized murine IL‐21R 20 nM) and 12.6 µM on murine IL‐21R (setting [2]). The body weight entry in data set [1] was “without affecting body weight”.
As for `CC[C@H](C)[C@H](NC(=O)[C@@H](NC(=O)CNC(=O)CNC(=O)CN)C(C)C)C(=O)N[C@@H](CCC(N)=O)C(=O)N[C@H](C(=O)N[C@H](C(=O)N[C@@H](CO)C(=O)N[C@@H](Cc1c[nH]cn1)C(=O)N[C@@H](CCC(=O)O)C(=O)N[C@@H](CS)C(=O)N[C@@H](CCCNC(=N)N)C(=O)N[C@@H](CCSC)C(=O)N[C@@H](CC(N)=O)C(=O)N[C@@H](CO)C(=O)N[C@@H](Cc1c[nH]c2ccccc12)C(=O)N[C@@H](CCC(N)=O)C(=O)N[C@@H](Cc1ccccc1)C(=O)N[C@@H](CC(C)C)C(=O)N[C@@H](Cc1ccccc1)C(=O)N[C@H](C(=O)N[C@@H](CS)C(=O)N[C@@H](CS)C(=O)N[C@@H](CO)C(=O)O)[C@@H](C)O)[C@@H](C)CC)[C@@H](C)O` [salivaricin B] (H-GGGVIQTISHECRMNSWQFLFTCCS-OH), the equilibrium dissociation constant (Kd) on murine IL‐21R (Figure S8D, salivaricin B mutant experiment, analyte 12.5-800, immobilized murine IL-21R 20 nM) was found to be 12.6 µM; on murine IL‐21R (setting [2]), 10.1 µM. The body weight result in data set [1] is “without affecting body weight”.

As usually defined, the Kd is the free concentration of one partner at which half of the binding sites on the other are occupied at equilibrium, for simple one-to-one binding. Low values mean a tighter complex, high ones a looser complex.
